Experimental data taken from patent US8722343B2, “Methods and compositions for the diagnosis and treatment of diabetes” (priority 2008, dated 2014).

Assays:
[1] = system: βTC3 cells; test: TUNEL apoptosis assay in βTC3 cells; type: cell-based; conditions: 0.1 mM DHK for five days
Method: 1B: Glutamate overstimulation causes increased β-cell apoptosis. 24 hours after plating, βTC3 cells were incubated for five days with 0.5 mM glutamate, and cell apoptosis was assessed by TUNEL assay. The cell nuclei were labelled with PrI. Histograms on the right represent TUNEL positive cells per field, and are the mean±SE of two independent experiments performed in duplicate.
6C TUNEL assay: 24 hours after plating, βTC3 cells were incubated for five days with 0.1 mM DHK, and cell apoptosis was assessed by TUNEL assay. Cell nuclei were labelled with PrI. Data are presented as TUNEL positive cells per field (histograms on the right), and are the mean±SE of two independent experiments performed in duplicate. * P<0.05
6D ShRNA interference. βTC3 cells were transfected with two different shRNA directed against GLT1 (Sh1, Sh3) or a control shRNA (ShC), and three days after transfection, cells were assayed for 3[H]-D-aspartate uptake (b) or lysed and the presence of GLT assayed by western blotting (a) or fixed and processed for TUNEL (c).
Apoptosis of β-TC3 cells was estimated using the terminal deoxynucleotidyltransferase-mediated dUTP-biotin nick end-labelling assay (TUNEL). […] Tunel-positive cells were counted by two independent observers using a 40× objective from at least 40 randomly selected fields per coverslip. […]

[2] = target: T1, GLT1 (Mus musculus, UniProt P43006); test: Na-dependent [3H]-D-aspartate uptake in βTC3 cells; type: cell-based
T1 construct: Since GLT1 is endogenously expressed in beta-TC3; endogenous in cells; host or cells: βTC3 mouse pancreatic beta-cell line
T1 sequence (P43006 1-569 isoform P43006-2): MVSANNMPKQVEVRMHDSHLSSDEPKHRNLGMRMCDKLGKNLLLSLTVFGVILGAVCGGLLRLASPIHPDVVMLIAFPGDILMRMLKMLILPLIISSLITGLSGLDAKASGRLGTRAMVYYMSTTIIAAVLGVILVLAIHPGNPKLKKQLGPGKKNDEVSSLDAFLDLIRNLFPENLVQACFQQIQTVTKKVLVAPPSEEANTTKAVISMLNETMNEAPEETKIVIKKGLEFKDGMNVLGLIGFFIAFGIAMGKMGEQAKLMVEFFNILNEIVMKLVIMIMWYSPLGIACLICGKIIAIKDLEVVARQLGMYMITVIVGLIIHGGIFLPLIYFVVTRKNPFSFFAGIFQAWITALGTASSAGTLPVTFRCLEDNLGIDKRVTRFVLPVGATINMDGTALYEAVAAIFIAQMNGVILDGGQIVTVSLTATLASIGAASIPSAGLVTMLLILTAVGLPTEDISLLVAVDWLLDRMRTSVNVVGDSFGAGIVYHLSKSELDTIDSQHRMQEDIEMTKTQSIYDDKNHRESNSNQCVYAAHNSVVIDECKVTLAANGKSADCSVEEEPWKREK
Method: (§1) 2D: 3H-D-Aspartate uptake. Four days after plating the Na-dependent (NaCl) and Na-independent (ChCl) [3H]-D-Aspartate uptake was measured in αTC1 and βTC3 cells. Data are expressed as cpm/well/10 min and represent the mean±SE of at least three independent experiments performed in triplicate. * (NaCl vs ChCl) P<0.001; ° (DHK versus control) P<0.001.
3×10^5 βTC3 cells/well were plated onto 24-well culture plates and the Na-dependent [3H]-D-Aspartate uptake was measured in the presence or the absence of increasing DHK concentrations (0.05-0.3 mM). Data are expressed as cpm/well/10 min and represent the mean±SE of at least three independent experiments performer in triplicate. * (DHK versus controls) P<0.001.
150.000 cells/well were plated in a 24-wells plate, and grown until confluence. After two washes in sodium-free solution (150 mM ChCl, 2 mM KCl, 1 mM CaCl2, 1 mM MgCl2, 10 mM Hepes pH 7.5), cells were incubated for 10 minutes in 200 μl of Na^+-dependent (150 mM NaCl 2 mM KCl, 1 mM CaCl2, 1 mM MgCl2, 10 mM Hepes pH 7.5) or Na^+-independent (sodium-free solution) uptake solution containing 5 μCi/ml of [^3H]D-Aspartic acid (specific activity 37 Ci/mmol; Amersham Biosciences). The amino acid uptake was stopped by washing the cells twice in ice-cold sodium-free solution. Cells were dissolved in 150 μl of SDS 1% for liquid scintillation counting. […]

[3] = system: αTC1 cells; test: Na-dependent [3H]-D-aspartate uptake in αTC1 cells; type: cell-based, mouse; conditions: DHK in uptake solution
Method: as §1
150.000 cells/well were plated in a 24-wells plate, and grown until confluence. After two washes in sodium-free solution (150 mM ChCl, 2 mM KCl, 1 mM CaCl2, 1 mM MgCl2, 10 mM Hepes pH 7.5), cells were incubated for 10 minutes in 200 μl of Na^+-dependent (150 mM NaCl 2 mM KCl, 1 mM CaCl2, 1 mM MgCl2, 10 mM Hepes pH 7.5) or Na^+-independent (sodium-free solution) uptake solution containing 5 μCi/ml of [^3H]D-Aspartic acid (specific activity 37 Ci/mmol; Amersham Biosciences). The amino acid uptake was stopped by washing the cells twice in ice-cold sodium-free solution. Cells were dissolved in 150 μl of SDS 1% for liquid scintillation counting. For transport inhibition, DHK was added to the uptake solution at the indicated concentrations.

[4] = target: T2, GLT1 (Homo sapiens, UniProt P43004); test: Na-dependent [3H]-D-aspartate uptake in isolated human islets; type: cell-based; design: dose or concentration left out as unconfirmed
T2 construct: from tissue; host or cells: isolated human pancreatic islets from cadaveric multiorgan donors
T2 sequence (P43004 whole entry): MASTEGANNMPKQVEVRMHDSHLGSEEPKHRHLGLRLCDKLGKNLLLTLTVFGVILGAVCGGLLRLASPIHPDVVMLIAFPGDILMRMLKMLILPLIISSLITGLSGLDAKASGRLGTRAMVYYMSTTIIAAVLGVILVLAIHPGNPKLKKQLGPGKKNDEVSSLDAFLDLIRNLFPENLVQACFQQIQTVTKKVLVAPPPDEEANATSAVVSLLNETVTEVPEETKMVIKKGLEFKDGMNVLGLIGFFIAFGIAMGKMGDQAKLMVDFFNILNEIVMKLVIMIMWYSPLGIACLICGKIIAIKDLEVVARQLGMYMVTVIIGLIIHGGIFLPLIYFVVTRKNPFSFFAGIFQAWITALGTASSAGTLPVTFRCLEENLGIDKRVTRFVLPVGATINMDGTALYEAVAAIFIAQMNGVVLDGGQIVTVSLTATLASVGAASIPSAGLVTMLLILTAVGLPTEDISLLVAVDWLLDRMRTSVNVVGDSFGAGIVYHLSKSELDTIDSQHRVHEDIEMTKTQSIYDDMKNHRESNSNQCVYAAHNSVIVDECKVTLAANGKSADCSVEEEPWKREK
Method: 3B: 3H-D Aspartate uptake. The Na-dependent (NaCl) and Na-independent (ChCl) [3H]-D-Aspartate uptake was measured in 40, hand picked, isolated human islets. […] Data are expressed as % of Na-dependent uptake (NaCl) and represent the mean±SE of at least three independent experiments performed in triplicate. * (DHK versus controls) P<0.001.
Human pancreatic islets were isolated from the pancreases of cadaveric multiorgan donors by using the procedure already described by Ricordi (Ricordi, et al, 1988). The islets used in this study were isolated from eight different organs. After the isolation, the islets were purified from the contaminant exocrine tissue by centrifugation on Ficoll gradients, obtaining a final purity that ranged from 60% to 80%, as assayed by dithizone staining (Ricordi et al, 1988). Islets were then cultured in RPMI 1640 tissue culture medium. After a 48-h stabilization culture, old medium was replaced with fresh medium and islets were cultured until used for insulin secretory studies, RNA extraction and uptake experiments. For apoptosis assay, fresh medium containing glutamate (0.5 or 5 mM) or DHK (0.05 or 0.1 mM) was replaced and islets were cultured for additional five days.
150.000 cells/well were plated in a 24-wells plate, and grown until confluence. […]

[5] = system: human isolated islets; type: cell-based; conditions: 16.7 mM glucose; DHK (0.3 mM) or L-glutamate (0.5 mM) alone
Method: FIG. 5: GLT1 CONTROLS HORMONE SECRETION IN HUMAN ISOLATED ISLETS. 48 hours after isolation, 20 human islets per tube were exposed to 3.3 or 16.7 mM glucose in the absence and the presence of either L-glutamate (0.5 mM), DHK (0.3 mM) or both L-glutamate and DHK, and insulin secretion measured. Levels of secreted insulin from islets were normalized to total insulin content. Data are expressed as % of insulin content and represent the mean±SD of two independent experiments performer in duplicate.
Insulin content and secretion were assessed on 20 islets, using a Micro-particle Enzyme Immunoassay (MEIA insulin, IMX System, Abbott Laboratories, Abbott Park, Ill., USA). Insulin secretion in response to increasing glucose concentrations, glutamate or DHK treatment was assessed by static incubation as previously described (Federici et al, 2000). Briefly, batches of 20 islets were pre-incubated in 1 ml of Krebs-Ringer buffer (KRB) supplemented with 3, 3 or 16.7 mM glucose for 30 min. Then the supernatants were replaced with Kreb's buffer containing 3, 3 or 16.7 mM glucose plus glutamate or the specific GLT1 inhibitor DHK (Sigma, St Louis, Mo., USA), as indicated. After a 30-min incubation at 37° C., the medium was removed and frozen for immunoassays. At the end of incubation, islets were lysed in lyses buffer and the total insulin content determined by immunoassay. […]

## CC(C)[C@H]1CN[C@H](C(=O)O)[C@H]1CC(=O)O [DHK, Dihydrokainic Acid]
[1]
  cause of cytotoxicity by TUNEL assay: due to apoptosis
[2]; 1 mM DHK
  Na-dependent aspartate uptake: completely inhibited
[2]; DHK 0.05-0.3 mM, read-out: IC50, inhibition of Na-dependent D-aspartate uptake
  IC50: 50 µM
[3]
  Na-dependent D-aspartate uptake: not inhibited
[4]
  Na-dependent transport of aspartate: completely inhibited
[5]
  effect on insulin secretion: No effect
